One test relates to BG505, cladeA HIV-1. Put plainly: Single-round pseudovirus infection inhibition (luciferase), BG505 Env. It is filed as cell-based. Particulars: Cf2Th target cells expressing CD4 and CCR5. How it is done: (§1) Cell lines. 293T cells were grown in Dulbecco's modified Eagle's medium (DMEM) (Life Technologies, Wisent Inc.) supplemented with 10% fetal bovine serum (FBS) (Life Technologies, VWR) and 100 µg/ml of penicillin-streptomycin (Life Technologies, Wisent Inc.). Cf2Th cells stably expressing the human CD4 and CCR5 coreceptors for HIV-1 were grown in the same medium supplemented with 0.4 mg/ml of G418 and 0.2 mg/ml of hygromycin.
(§2) CD4-mimetic compound. The compounds of the disclosure (CD4mc) were dissolved in dimethyl sulfoxide (DMSO) at a stock concentration of 10 mM and diluted to the appropriate concentration for antiviral assays.
(§3) Production of recombinant pseudoviruses expressing luciferase. 293T cells were transfected with pSVIIIenv plasmids expressing Env from HIV-1 strain variants, the pCMVΔP1Δenv HIV-1 Gag-Pol packaging construct and the firefly luciferase-expressing HIV-1 vector at a 1:1:3 μg DNA ratio using effectene transfection reagent (Qiagen). […]
(§4) Virus infectivity and inhibition. […] Forty-eight h later, the target cells were lysed and the luciferase activity was measured.
(§5) For inhibition assays, the compounds to be tested were incubated at various concentrations with recombinant pseudoviruses for 1 h at 37° C. […] Forty-eight hours later, the target cells were lysed and the luciferase activity was measured. […]

The subject of another test is HIVCH58TF-infected cells. Kind of test: ADCC killing of HIVCH58TF-infected cells. Type of test: cell-based, HIV-1. From the text:
(§6) The ability of the compounds of the disclosure to enhance Ab recognition of Env on the surface of infected cells and mediate ADCC was examined. Via HIV+ plasma binding, it was observed that CJF-III-192 was able to enhance Ab recognition to a greater degree than BNM-III-170 (7-fold vs 2-fold enhancement vs DMSO) for JR-FL infected primary T-cells. Additionally, when comparing the % ADCC activity of these two compounds, it was observed that CJF-III-192 could achieve up to 8% killing of HIVJR-FL-infected cells, while BNM-III-170 could only attain levels up to 5%. This effect on ADCC activity was more pronounced with HIVCH58TF-infected cells; 18% killing for CJF-III-192 vs. 8% killing with […].

The test system of test [1] is mutant HIV-1AD8 batches 130_3 and 130_C. Put plainly: Entry inhibition of CD4mc resistant AD8 variants. Type of test: cell-based. Particulars: up to 300 μM. How it is done:
CD4mc resistant variants of Clade B virus AD8 were also selected by incubating infected host cells with increasing concentrations of BNM-III-170. […] These resistant strains of AD8 were sequenced to find specific mutations in the gp120 monomer that conferred the greatest resistance to BNM-III-170. Of these mutations examined, E64G, S375N, and I424T conferred the greatest resistance to treatment with compounds of the disclosure.
Each of the mutations individually were able to increase resistance to BNM-III-170, but were most resistant when combined as in HIV-1AD8 isolates 130_3 and 130_C. […] This was true with the individual mutations discussed above, as well as the original resistant mutants 130_3 and 130_C.

In the next test the test system is HIV-1 AD8. Kind of test: Single-round pseudovirus infection inhibition (luciferase), AD8 Env. It is filed as cell-based. Particulars: Cf2Th target cells expressing CD4 and CCR5. As to the method: as §1, §2, §3, §4, §5
In test [2] the test system is Env on JR-FL infected primary T-cells. Kind of test: HIV+ plasma binding (Ab recognition of Env on infected cells). It is filed as cell-based, HIV-1.
Text: as §6

The next test deals with HIV-1 JR-FL. Kind of test: Single-round pseudovirus infection inhibition (luciferase), JR-FL Env. It is filed as cell-based. Particulars: Cf2Th target cells expressing CD4 and CCR5. How it is done: as §1, §2, §3, §4, §5
A further test deals with HIVJR-FL-infected cells. Put plainly: ADCC killing of HIVJR-FL-infected cells. Type of test: cell-based, HIV-1.
Text: as §6

This note sets out measurements from patent US20260265194A1, “COMPOUNDS FOR THE TREATMENT OF HIV” (THE TRUSTEES OF THE UNIVERSITY OF PENNSYLVANIA, priority 2022, published 2026).

For `CNCc1ccc2c(c1)C[C@H](CN=C(N)N)[C@H]2NC(=O)C(=O)Nc1ccc(Cl)c(F)c1.O=C(O)C(F)(F)F.O=C(O)C(F)(F)F` [BNM-III-170], the half-inhibitory concentration (IC50) is > 300 µM with BG505, cladeA HIV-1; 1.7 µM with HIV-1 AD8; 12.2 µM in the test on HIV-1 JR-FL. In addition, the “% ADCC activity (killing)” value in the test on HIVCH58TF-infected cells is listed as 8%; in the test with HIVJR-FL-infected cells, “up to 5%”. In addition, the “entry inhibition of resistant mutants” value in test [1] is on record as “completely resistant”. For the same molecule, the “enhancement of Ab recognition vs DMSO” value in test [2] is given as 2 fold.

As usually defined, the IC50 is the concentration at which inhibition is half-maximal. Low values mean inhibition by little substance, high ones a need for much substance.
